Results on one molecule are retold here after publication PMC3170524 (Physiological research / Academia Scientiarum Bohemoslovaca, 2010).

The structures appear in SMILES notation. Residue numbers refer to the chain shown, from its start.

What all share (assay): whole-cell patch clamp, peak current dose-response
Common to all, as to format: cell-based
A general note: The patch-clamp technique gives a direct electrical read-out from membranes.

The target in experiment [1] is T1, rat P2X4R (Rattus norvegicus, UniProt P51577, C116T).
T1 sequence (P51577 1-388 C116T): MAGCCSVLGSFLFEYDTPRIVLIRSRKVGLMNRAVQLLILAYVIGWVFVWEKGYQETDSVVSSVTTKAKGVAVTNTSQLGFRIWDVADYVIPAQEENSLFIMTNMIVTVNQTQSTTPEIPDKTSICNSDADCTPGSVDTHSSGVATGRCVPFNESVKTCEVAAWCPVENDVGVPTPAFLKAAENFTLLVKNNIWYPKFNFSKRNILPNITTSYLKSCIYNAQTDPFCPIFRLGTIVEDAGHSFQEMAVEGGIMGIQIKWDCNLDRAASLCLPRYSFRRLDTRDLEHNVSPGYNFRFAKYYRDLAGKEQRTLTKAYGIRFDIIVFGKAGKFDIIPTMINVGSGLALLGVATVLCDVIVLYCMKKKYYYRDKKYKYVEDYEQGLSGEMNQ

Experiment [2] has as its target T2, rat P2X4R (Rattus norvegicus, UniProt P51577, C132T).
T2 sequence (P51577 1-388 C132T): T1 sequence (P51577 1-388 C116T) with T116C, C132T

Experiment [3] has as its target T3, rat P2X4R (Rattus norvegicus, UniProt P51577).
T3 sequence (P51577 1-388): T1 sequence (P51577 1-388 C116T) with T116C

Experiment [4] has as its target T4, rat P2X4R (Rattus norvegicus, UniProt P51577, C217T).
T4 sequence (P51577 1-388 C217T): T1 sequence (P51577 1-388 C116T) with T116C, C217T

In experiment [5] the target is T5, rat P2X4R (Rattus norvegicus, UniProt P51577, C132A).
T5 sequence (P51577 1-388 C132A): T1 sequence (P51577 1-388 C116T) with T116C, C132A

For experiment [6], the target named is T6, rat P2X4R (Rattus norvegicus, UniProt P51577, C116A).
T6 sequence (P51577 1-388 C116A): T1 sequence (P51577 1-388 C116T) with T116A

Experiment [7] concerns the target T7, rat P2X4R (Rattus norvegicus, UniProt P51577, C126A).
T7 sequence (P51577 1-388 C126A): T1 sequence (P51577 1-388 C116T) with T116C, C126A

With `Nc1ncnc2c1ncn2[C@@H]1O[C@H](COP(=O)(O)OP(=O)(O)OP(=O)(O)O)[C@@H](O)[C@H]1O` [ATP], the 50% effective concentration (EC50) (commonly the concentration at which the effect is half-maximal) on rat P2X4R [1] was 21 ± 4.1 µM; on rat P2X4R [2], 8.2 ± 2.1 µM; on rat P2X4R [3], 4.6 ± 0.5 µM; on rat P2X4R [4] it was 7.2 ± 2.9 µM; on rat P2X4R [5], 14 ± 4.1 µM; at rat P2X4R [6] it was 27 ± 6.5 µM. This molecule returned an EC50 at rat P2X4R [7] of 24 ± 5.6 µM.
